Tested on: not listed separately
Experiment: Solubility of the compound in water
Type: physicochemical
Conditions: buffer

solubility [µM]	SMILES
1240	Cc1c2cc(NC(=O)NCCCCCCNC(=O)Nc3ccc4c(c3)c(C)[n+](C)c3ccccc43)ccc2c2ccccc2[n+]1C.O=S(=O)([O-])O.O=S(=O)([O-])O

Tested on: Calf thymus DNA
Experiment: Binding affinity to calf thymus DNA in citric acid buffer at pH 5 by fluorescence titration assay
Type: nucleic-acid assay
Conditions: Bos taurus

log Ks	SMILES
> 7	Cc1c2cc(NC(=O)NCCCCCCNC(=O)Nc3ccc4c(c3)c(C)[n+](C)c3ccccc43)ccc2c2ccccc2[n+]1C.O=S(=O)([O-])O.O=S(=O)([O-])O

Tested on: Nucleic Acid
Experiment: Binding affinity to poly dA-poly dT RNA in citric acid buffer at pH 5 by fluorescence titration assay relative to control
Type: nucleic-acid assay
Conditions: not given

RFU	SMILES
24	Cc1c2cc(NC(=O)NCCCCCCNC(=O)Nc3ccc4c(c3)c(C)[n+](C)c3ccccc43)ccc2c2ccccc2[n+]1C.O=S(=O)([O-])O.O=S(=O)([O-])O

Tested on: Nucleic Acid
Experiment: Binding affinity to poly dA-poly dT RNA in citric acid buffer at pH 5 by fluorescence titration assay
Type: nucleic-acid assay
Conditions: not given

log Ks	SMILES
6.1	Cc1c2cc(NC(=O)NCCCCCCNC(=O)Nc3ccc4c(c3)c(C)[n+](C)c3ccccc43)ccc2c2ccccc2[n+]1C.O=S(=O)([O-])O.O=S(=O)([O-])O

Tested on: Nucleic Acid
Experiment: Binding affinity to poly A-poly U RNA in citric acid buffer at pH 5 by fluorescence titration assay relative to control
Type: nucleic-acid assay
Conditions: not given

RFU	SMILES
20	Cc1c2cc(NC(=O)NCCCCCCNC(=O)Nc3ccc4c(c3)c(C)[n+](C)c3ccccc43)ccc2c2ccccc2[n+]1C.O=S(=O)([O-])O.O=S(=O)([O-])O

Tested on: Nucleic Acid
Experiment: Binding affinity to poly A-poly U RNA in citric acid buffer at pH 5 by fluorescence titration assay
Type: nucleic-acid assay
Conditions: not given

log Ks	SMILES
5.6	Cc1c2cc(NC(=O)NCCCCCCNC(=O)Nc3ccc4c(c3)c(C)[n+](C)c3ccccc43)ccc2c2ccccc2[n+]1C.O=S(=O)([O-])O.O=S(=O)([O-])O

Tested on: Nucleic Acid
Experiment: Binding affinity to poly G-poly C RNA in citric acid buffer at pH 5 by fluorescence titration assay relative to control
Type: nucleic-acid assay
Conditions: not given

RFU	SMILES
0	Cc1c2cc(NC(=O)NCCCCCCNC(=O)Nc3ccc4c(c3)c(C)[n+](C)c3ccccc43)ccc2c2ccccc2[n+]1C.O=S(=O)([O-])O.O=S(=O)([O-])O

Tested on: Nucleic Acid
Experiment: Binding affinity to poly G-poly C RNA in citric acid buffer at pH 5 by fluorescence titration assay
Type: nucleic-acid assay
Conditions: not given

log Ks	SMILES
5.5	Cc1c2cc(NC(=O)NCCCCCCNC(=O)Nc3ccc4c(c3)c(C)[n+](C)c3ccccc43)ccc2c2ccccc2[n+]1C.O=S(=O)([O-])O.O=S(=O)([O-])O

Tested on: Calf thymus DNA
Experiment: Binding affinity to calf thymus DNA in sodium cacodylate buffer at pH 7 by fluorescence titration assay relative to control
Type: nucleic-acid assay
Conditions: Bos taurus

RFU	SMILES
1.8	Cc1c2cc(NC(=O)NCCCCCCNC(=O)Nc3ccc4c(c3)c(C)[n+](C)c3ccccc43)ccc2c2ccccc2[n+]1C.O=S(=O)([O-])O.O=S(=O)([O-])O

Tested on: Calf thymus DNA
Experiment: Binding affinity to calf thymus DNA in sodium cacodylate buffer at pH 7 by fluorescence titration assay
Type: nucleic-acid assay
Conditions: Bos taurus

log Ks	SMILES
6.2	Cc1c2cc(NC(=O)NCCCCCCNC(=O)Nc3ccc4c(c3)c(C)[n+](C)c3ccccc43)ccc2c2ccccc2[n+]1C.O=S(=O)([O-])O.O=S(=O)([O-])O

Tested on: Nucleic Acid
Experiment: Binding affinity to poly dA-poly dT RNA in sodium cacodylate buffer at pH 7 by fluorescence titration assay relative to control
Type: nucleic-acid assay
Conditions: not given

RFU	SMILES
10.7	Cc1c2cc(NC(=O)NCCCCCCNC(=O)Nc3ccc4c(c3)c(C)[n+](C)c3ccccc43)ccc2c2ccccc2[n+]1C.O=S(=O)([O-])O.O=S(=O)([O-])O

Tested on: Nucleic Acid
Experiment: Binding affinity to poly dA-poly dT RNA in sodium cacodylate buffer at pH 7 by fluorescence titration assay
Type: nucleic-acid assay
Conditions: not given

log Ks	SMILES
5.3	Cc1c2cc(NC(=O)NCCCCCCNC(=O)Nc3ccc4c(c3)c(C)[n+](C)c3ccccc43)ccc2c2ccccc2[n+]1C.O=S(=O)([O-])O.O=S(=O)([O-])O

Tested on: Nucleic Acid
Experiment: Binding affinity to poly A-poly U RNA in sodium cacodylate buffer at pH 7 by fluorescence titration assay relative to control
Type: nucleic-acid assay
Conditions: not given

RFU	SMILES
15.8	Cc1c2cc(NC(=O)NCCCCCCNC(=O)Nc3ccc4c(c3)c(C)[n+](C)c3ccccc43)ccc2c2ccccc2[n+]1C.O=S(=O)([O-])O.O=S(=O)([O-])O

Tested on: Nucleic Acid
Experiment: Binding affinity to poly A-poly U RNA in sodium cacodylate buffer at pH 7 by fluorescence titration assay
Type: nucleic-acid assay
Conditions: not given

log Ks	SMILES
5.4	Cc1c2cc(NC(=O)NCCCCCCNC(=O)Nc3ccc4c(c3)c(C)[n+](C)c3ccccc43)ccc2c2ccccc2[n+]1C.O=S(=O)([O-])O.O=S(=O)([O-])O

Tested on: Nucleic Acid
Experiment: Binding affinity to poly G-poly C RNA in sodium cacodylate buffer at pH 7 by fluorescence titration assay relative to control
Type: nucleic-acid assay
Conditions: not given

RFU	SMILES
0.3	Cc1c2cc(NC(=O)NCCCCCCNC(=O)Nc3ccc4c(c3)c(C)[n+](C)c3ccccc43)ccc2c2ccccc2[n+]1C.O=S(=O)([O-])O.O=S(=O)([O-])O

Tested on: Nucleic Acid
Experiment: Binding affinity to poly dA-poly dT RNA in sodium cacodylate buffer at pH 7 by UV-v titration assay
Type: nucleic-acid assay
Conditions: not given

log Ks	SMILES
5.6	Cc1c2cc(NC(=O)NCCCCCCNC(=O)Nc3ccc4c(c3)c(C)[n+](C)c3ccccc43)ccc2c2ccccc2[n+]1C.O=S(=O)([O-])O.O=S(=O)([O-])O

Tested on: Nucleic Acid
Experiment: Binding affinity to […] assessed as change in melting temperature at compound to DNA molar ratio of 0.2 at pH 5 by thermal denaturation assay
Type: nucleic-acid assay
Conditions: not given

ΔTm [°C]	SMILES
9.7	Cc1c2cc(NC(=O)NCCCCCCNC(=O)Nc3ccc4c(c3)c(C)[n+](C)c3ccccc43)ccc2c2ccccc2[n+]1C.O=S(=O)([O-])O.O=S(=O)([O-])O

Tested on: Nucleic Acid
Experiment: Binding affinity to […] assessed as change in melting temperature at compound to DNA molar ratio of 0.3 at pH 5 by thermal denaturation assay
Type: nucleic-acid assay
Conditions: not given

ΔTm [°C]	SMILES
10.4	Cc1c2cc(NC(=O)NCCCCCCNC(=O)Nc3ccc4c(c3)c(C)[n+](C)c3ccccc43)ccc2c2ccccc2[n+]1C.O=S(=O)([O-])O.O=S(=O)([O-])O

Tested on: Nucleic Acid
Experiment: Binding affinity to poly A-poly U RNA assessed as change in melting temperature at compound to DNA molar ratio of 0.2 at pH 5 by thermal denaturation assay
Type: nucleic-acid assay
Conditions: not given

ΔTm [°C]	SMILES
2.2	Cc1c2cc(NC(=O)NCCCCCCNC(=O)Nc3ccc4c(c3)c(C)[n+](C)c3ccccc43)ccc2c2ccccc2[n+]1C.O=S(=O)([O-])O.O=S(=O)([O-])O

Tested on: Calf thymus DNA
Experiment: Binding affinity to calf thymus DNA assessed as change in melting temperature at compound to DNA molar ratio of 0.3 at pH 7 by thermal denaturation assay
Type: nucleic-acid assay
Conditions: Bos taurus

ΔTm [°C]	SMILES
5.5	Cc1c2cc(NC(=O)NCCCCCCNC(=O)Nc3ccc4c(c3)c(C)[n+](C)c3ccccc43)ccc2c2ccccc2[n+]1C.O=S(=O)([O-])O.O=S(=O)([O-])O

Tested on: Nucleic Acid
Experiment: Binding affinity to […] assessed as change in melting temperature at compound to DNA molar ratio of 0.2 at pH 7 by thermal denaturation assay
Type: nucleic-acid assay
Conditions: not given

ΔTm [°C]	SMILES
5.2	Cc1c2cc(NC(=O)NCCCCCCNC(=O)Nc3ccc4c(c3)c(C)[n+](C)c3ccccc43)ccc2c2ccccc2[n+]1C.O=S(=O)([O-])O.O=S(=O)([O-])O

Tested on: Nucleic Acid
Experiment: Binding affinity to […] assessed as change in melting temperature at compound to DNA molar ratio of 0.3 at pH 7 by thermal denaturation assay
Type: nucleic-acid assay
Conditions: not given

ΔTm [°C]	SMILES
6.4	Cc1c2cc(NC(=O)NCCCCCCNC(=O)Nc3ccc4c(c3)c(C)[n+](C)c3ccccc43)ccc2c2ccccc2[n+]1C.O=S(=O)([O-])O.O=S(=O)([O-])O
